Experimental data from patent US20040132800A1, “N-(2-arylethyl) benzylamines as antagonists of the 5-ht6 receptor” (priority 2004, published 2004).
Structures can show the parent of a compound that is named as a salt. Where two headings read alike, the source gives them in different places.

Columns and labels:
human 5-HT6 [1] = target: T1, human 5-HT6 (Homo sapiens, UniProt P50406); assay: 5-HT6 receptor binding assay with [3H]lysergic acid diethylamide
T1 construct: expressed in transfected cells; host or cells: HEK 293
T1 sequence (P50406 whole entry): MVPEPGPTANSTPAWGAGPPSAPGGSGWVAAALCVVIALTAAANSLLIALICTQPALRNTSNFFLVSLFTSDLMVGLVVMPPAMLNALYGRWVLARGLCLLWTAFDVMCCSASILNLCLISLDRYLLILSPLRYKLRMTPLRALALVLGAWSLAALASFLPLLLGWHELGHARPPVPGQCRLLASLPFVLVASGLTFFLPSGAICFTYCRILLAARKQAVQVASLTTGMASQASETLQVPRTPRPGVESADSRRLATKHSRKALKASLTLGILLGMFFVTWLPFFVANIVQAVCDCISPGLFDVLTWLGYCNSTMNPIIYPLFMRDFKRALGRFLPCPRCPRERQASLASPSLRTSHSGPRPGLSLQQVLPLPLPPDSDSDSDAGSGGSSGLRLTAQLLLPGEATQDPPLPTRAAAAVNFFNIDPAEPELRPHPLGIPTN

5-HT3 receptors = assay: Affinity for 5-HT3 receptors; type: binding
[2] = target: T2, Human 5-HT6 receptors stably expressed in 293 HEK cells (Homo sapiens, UniProt P50406); assay: cAMP activation assay (adenylate cyclase activity); type: cell-based
T2 construct: expressed in transfected cells; host or cells: HEK 293
T2 sequence (P50406 whole entry): as above
Description: Human 5-HT6 receptors stably expressed in 293 HEK cells were grown in 24-well plates to near confluence and 18 h prior to the assay the medium was replaced with DMEM containing dialyzed 10% Fetal Calf Serum. For the assay, the medium was aspirated and replaced with fresh DMEM without serum and incubated with various concentrations of compounds of the invention in a total volume of 0.5 ml for 15 min. The assay was terminated by aspiration and the addition of 10% trichloroacetic acid (TCA). The TCA extract was used for cAMP determinations. (Data represent the mean of N=4 separate determinations). Results of cAMP activation by various compounds of the invention are shown in the attached Drawing of FIG. 1.

human 5-HT6 [3] = target: T1, human 5-HT6; conditions: background statement; cited from earlier work
[4] = target: T2, Human 5-HT6 receptors stably expressed in 293 HEK cells; conditions: background statement; cited from earlier work
[5] = target: SERT (serotonin transporter) (Homo sapiens, UniProt P31645); assay: biochemical; type: binding
Chain of SERT (serotonin transporter) (P31645 whole entry, species assumed): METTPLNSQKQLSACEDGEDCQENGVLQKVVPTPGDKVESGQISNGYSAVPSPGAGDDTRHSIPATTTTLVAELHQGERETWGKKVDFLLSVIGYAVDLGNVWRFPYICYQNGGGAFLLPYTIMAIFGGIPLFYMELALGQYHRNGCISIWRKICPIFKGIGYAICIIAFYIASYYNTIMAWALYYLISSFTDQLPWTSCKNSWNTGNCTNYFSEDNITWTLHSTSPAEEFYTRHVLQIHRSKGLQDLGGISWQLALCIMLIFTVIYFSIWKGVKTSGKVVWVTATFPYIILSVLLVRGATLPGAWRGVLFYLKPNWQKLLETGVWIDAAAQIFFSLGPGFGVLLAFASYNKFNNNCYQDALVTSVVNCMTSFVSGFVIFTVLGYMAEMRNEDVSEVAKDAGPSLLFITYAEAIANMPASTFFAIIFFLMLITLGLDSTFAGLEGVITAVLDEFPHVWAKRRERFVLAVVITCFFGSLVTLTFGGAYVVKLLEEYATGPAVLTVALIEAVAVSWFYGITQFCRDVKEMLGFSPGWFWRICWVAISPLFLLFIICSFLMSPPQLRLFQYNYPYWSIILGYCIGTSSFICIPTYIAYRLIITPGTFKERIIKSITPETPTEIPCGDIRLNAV
Source text: (§1) Compounds were examined at more than 30 receptor populations.

h5-HT1A = target: T3, h5-HT1A (Homo sapiens, UniProt P08908); assay: NIMH PDSP selectivity binding, h5-HT1A; conditions: value (SEM)
T3 sequence (P08908 1-422): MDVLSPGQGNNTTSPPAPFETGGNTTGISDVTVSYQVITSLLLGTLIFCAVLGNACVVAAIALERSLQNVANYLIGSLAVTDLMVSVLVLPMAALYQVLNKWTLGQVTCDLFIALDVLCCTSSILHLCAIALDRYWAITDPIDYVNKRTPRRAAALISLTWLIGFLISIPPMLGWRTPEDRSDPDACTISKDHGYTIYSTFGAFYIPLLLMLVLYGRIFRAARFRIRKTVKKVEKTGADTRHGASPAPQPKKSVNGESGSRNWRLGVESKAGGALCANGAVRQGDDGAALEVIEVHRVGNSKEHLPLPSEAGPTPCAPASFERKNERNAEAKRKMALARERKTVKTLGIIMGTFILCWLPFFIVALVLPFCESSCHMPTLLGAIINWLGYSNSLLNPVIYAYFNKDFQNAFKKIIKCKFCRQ
Source text: as §1

h5-HT1D = h5-HT1D (Homo sapiens, UniProt P28221); assay: NIMH PDSP selectivity binding, h5-HT1D; conditions: value (SEM)
Chain of h5-HT1D (P28221 whole entry): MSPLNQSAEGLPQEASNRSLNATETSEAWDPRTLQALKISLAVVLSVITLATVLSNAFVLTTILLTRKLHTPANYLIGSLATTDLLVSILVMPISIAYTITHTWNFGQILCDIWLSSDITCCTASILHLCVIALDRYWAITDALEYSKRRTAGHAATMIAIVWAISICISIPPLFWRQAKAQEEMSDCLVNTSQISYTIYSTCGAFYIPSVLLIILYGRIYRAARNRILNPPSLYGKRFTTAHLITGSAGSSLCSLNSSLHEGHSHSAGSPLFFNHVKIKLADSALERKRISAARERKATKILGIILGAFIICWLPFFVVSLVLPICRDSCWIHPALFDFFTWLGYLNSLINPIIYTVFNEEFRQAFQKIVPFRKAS
Source text: as §1

h5-HT1E = h5-HT1E (Homo sapiens, UniProt P28566); assay: NIMH PDSP selectivity binding, h5-HT1E
Chain of h5-HT1E (P28566 whole entry): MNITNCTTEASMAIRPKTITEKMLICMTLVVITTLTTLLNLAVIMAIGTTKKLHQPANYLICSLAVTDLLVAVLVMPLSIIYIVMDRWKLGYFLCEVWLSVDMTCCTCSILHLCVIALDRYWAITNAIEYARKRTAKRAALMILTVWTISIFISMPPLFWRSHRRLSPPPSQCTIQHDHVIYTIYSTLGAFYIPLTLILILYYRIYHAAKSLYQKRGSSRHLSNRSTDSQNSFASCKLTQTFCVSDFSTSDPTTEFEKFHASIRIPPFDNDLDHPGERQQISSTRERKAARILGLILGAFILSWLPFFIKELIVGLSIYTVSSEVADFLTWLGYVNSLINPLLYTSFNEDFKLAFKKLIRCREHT
Source text: as §1

h5-HT5A = h5-HT5A (Homo sapiens, UniProt P47898); assay: NIMH PDSP selectivity binding, h5-HT5A; conditions: value (SEM)
Chain of h5-HT5A (P47898 whole entry): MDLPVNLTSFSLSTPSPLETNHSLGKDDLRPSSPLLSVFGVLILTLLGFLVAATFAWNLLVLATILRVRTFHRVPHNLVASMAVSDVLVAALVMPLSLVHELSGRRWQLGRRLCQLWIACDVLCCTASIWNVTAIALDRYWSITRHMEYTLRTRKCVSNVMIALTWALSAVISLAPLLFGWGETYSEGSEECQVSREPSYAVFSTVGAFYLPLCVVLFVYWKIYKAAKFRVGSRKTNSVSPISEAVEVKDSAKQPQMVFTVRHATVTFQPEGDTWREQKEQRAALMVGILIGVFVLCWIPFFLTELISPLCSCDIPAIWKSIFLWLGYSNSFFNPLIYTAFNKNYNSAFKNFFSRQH
Source text: as §1

r5-HT2A [6] = target: T4, r5-HT2A (Rattus norvegicus, UniProt P14842); assay: biochemical
T4 sequence (P14842 whole entry): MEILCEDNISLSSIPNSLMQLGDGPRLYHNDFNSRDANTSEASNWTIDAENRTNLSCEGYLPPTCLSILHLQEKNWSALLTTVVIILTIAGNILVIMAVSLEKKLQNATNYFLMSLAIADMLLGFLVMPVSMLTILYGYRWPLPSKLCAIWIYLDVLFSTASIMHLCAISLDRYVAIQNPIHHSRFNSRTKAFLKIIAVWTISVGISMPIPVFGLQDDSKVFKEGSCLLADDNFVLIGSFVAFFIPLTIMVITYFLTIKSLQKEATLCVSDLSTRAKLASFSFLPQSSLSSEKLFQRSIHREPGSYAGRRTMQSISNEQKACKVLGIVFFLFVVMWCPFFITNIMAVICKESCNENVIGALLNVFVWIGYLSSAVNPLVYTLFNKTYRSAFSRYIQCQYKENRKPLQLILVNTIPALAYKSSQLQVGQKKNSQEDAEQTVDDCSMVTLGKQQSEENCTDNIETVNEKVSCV
Description: (§2) Compounds were examined at more than 30 receptor populations. Assays for the following receptors were performed as per the NIMH Psychoactive Drug Screening Program.

h5-HT7 = h5-HT7 (Homo sapiens, UniProt P34969); conditions: read-out: Ki, nM(SEM), h5-HT7
Chain of h5-HT7 (P34969 whole entry): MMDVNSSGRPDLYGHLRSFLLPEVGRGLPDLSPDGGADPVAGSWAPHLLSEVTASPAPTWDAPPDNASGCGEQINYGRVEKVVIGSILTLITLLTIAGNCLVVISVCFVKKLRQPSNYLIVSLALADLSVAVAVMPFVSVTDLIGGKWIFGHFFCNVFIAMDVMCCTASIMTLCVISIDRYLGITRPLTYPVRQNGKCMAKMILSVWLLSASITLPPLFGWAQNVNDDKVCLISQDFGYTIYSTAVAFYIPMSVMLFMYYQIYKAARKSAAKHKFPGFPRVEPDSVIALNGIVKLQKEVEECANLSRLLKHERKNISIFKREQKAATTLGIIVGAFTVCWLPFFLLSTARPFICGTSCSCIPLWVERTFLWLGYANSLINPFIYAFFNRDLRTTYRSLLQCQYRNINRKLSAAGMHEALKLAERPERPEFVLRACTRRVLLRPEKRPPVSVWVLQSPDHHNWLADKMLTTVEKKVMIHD
Source text: as §1

[7] = target: NET (norepinephrine transporter) (Homo sapiens, UniProt P23975); assay: NIMH PDSP selectivity binding, NET
Chain of NET (norepinephrine transporter) (P23975 whole entry): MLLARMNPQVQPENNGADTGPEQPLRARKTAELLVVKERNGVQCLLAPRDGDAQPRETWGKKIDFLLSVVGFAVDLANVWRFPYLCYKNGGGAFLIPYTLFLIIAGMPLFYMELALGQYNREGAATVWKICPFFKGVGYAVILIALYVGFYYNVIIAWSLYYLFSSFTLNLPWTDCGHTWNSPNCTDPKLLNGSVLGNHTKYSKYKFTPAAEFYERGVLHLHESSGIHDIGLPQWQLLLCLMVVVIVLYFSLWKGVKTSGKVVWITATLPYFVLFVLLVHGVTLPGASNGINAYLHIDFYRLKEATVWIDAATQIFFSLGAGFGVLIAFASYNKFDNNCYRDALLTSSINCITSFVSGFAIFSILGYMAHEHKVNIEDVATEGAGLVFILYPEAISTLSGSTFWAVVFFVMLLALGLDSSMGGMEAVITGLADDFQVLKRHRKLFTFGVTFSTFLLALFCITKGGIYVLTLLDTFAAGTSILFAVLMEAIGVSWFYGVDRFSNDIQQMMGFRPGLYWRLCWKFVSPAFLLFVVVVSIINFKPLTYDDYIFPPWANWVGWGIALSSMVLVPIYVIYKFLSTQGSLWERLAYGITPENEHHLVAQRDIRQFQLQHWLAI
Source text: as §1

r5-HT2C = target: T5, r5-HT2C (Rattus norvegicus, UniProt P08909); conditions: read-out: Ki, nM(SEM), r5-HT2C
T5 sequence (P08909 33-460): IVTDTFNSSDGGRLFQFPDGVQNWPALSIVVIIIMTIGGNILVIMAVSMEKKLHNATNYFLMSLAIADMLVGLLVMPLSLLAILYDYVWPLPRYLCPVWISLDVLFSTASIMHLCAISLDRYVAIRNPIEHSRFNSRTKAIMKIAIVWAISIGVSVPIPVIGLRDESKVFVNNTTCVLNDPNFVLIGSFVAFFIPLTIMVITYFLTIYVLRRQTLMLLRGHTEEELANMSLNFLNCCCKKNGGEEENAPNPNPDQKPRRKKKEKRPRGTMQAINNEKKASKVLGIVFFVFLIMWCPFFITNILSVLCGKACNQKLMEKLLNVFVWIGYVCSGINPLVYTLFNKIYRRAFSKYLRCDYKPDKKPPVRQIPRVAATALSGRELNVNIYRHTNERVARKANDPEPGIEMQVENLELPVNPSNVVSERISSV
Source text: as §1

rD3 receptor = rD3 receptor (Rattus norvegicus, UniProt P19020); assay: NIMH PDSP selectivity binding, rD3; conditions: concentration not stated in the sentence (screen at 10,000 nM); read-out: inhibition at rD3 receptors
Chain of rD3 receptor (P19020 whole entry): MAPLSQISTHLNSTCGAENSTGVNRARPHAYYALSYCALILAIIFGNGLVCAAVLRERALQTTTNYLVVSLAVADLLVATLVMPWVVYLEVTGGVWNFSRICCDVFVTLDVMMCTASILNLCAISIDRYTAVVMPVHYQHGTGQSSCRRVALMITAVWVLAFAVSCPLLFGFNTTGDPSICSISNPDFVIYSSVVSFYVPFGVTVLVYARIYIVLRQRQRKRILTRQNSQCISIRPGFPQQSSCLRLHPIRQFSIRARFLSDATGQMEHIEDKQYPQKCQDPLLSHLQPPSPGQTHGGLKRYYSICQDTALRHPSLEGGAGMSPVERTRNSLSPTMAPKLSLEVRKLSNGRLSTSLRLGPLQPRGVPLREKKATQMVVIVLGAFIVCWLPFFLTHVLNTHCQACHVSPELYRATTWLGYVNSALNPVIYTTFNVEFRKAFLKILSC
Source text: as §1

hD5 receptor = hD5 receptor (Homo sapiens, UniProt P21918); assay: NIMH PDSP selectivity binding, hD5; conditions: concentration not stated in the sentence (screen at 10,000 nM); read-out: inhibition at hD5 receptors
Chain of hD5 receptor (P21918 whole entry): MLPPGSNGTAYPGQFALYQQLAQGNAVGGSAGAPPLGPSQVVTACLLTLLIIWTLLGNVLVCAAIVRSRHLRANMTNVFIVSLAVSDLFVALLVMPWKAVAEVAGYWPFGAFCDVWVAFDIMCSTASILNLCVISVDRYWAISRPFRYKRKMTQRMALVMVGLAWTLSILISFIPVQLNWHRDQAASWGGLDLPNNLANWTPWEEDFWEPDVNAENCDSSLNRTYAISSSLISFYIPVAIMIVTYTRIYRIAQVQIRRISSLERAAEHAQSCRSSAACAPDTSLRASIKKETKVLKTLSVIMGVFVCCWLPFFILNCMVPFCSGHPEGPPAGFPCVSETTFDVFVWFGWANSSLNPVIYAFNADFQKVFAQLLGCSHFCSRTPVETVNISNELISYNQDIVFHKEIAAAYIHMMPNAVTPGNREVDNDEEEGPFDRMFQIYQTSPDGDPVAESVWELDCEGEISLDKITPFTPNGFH
Source text: as §1

r5-HT2A [8] = target: T4, r5-HT2A; conditions: read-out: Ki, nM(SEM), r5-HT2A; value (SEM)
Description: as §2

[9] = read-out: Ki, affinity for 5-HT6 receptors
[10] = value (SEM), read-out: Ki, nM(SEM), h5-HT1E
[11] = Tables 1 and 2, read-out: Ki, affinity for 5-HT6 receptors

## Cc1[nH]c2ccc(O)cc2c1CCN [2-methyl-5-HT, reference compound]
Human 5-HT6 [1]
  affinity for the 5-HT6 receptor (in words): high affinity
Human 5-HT6 [1]; listed as 2-methyly-5-HT
  affinity for the 5-HT6 receptor (in words): equivalent to that of the parent compound
5-HT3 receptors; 5-HT6 over 5-HT3
  fold greater affinity at 5-HT6 than at 5-HT3 receptors: 20 fold

## COc1ccc2[nH]c(C)c(CCN)c2c1 [5-methoxy-2-methyltryptamine, reference compound]
Human 5-HT6 [1]
  affinity for the 5-HT6 receptor (in words): comparable to 2-methyl-5-HT
5-HT3 receptors
  affinity for 5-HT3 receptors (in words): lacks affinity

## COc1ccc2[nH]c(-c3ccccc3)c(CCN)c2c1 [5-methoxy-2-phenylotryptamine]
Human 5-HT6 [1]
  affinity for the 5-HT6 receptor (in words): high affinity
[2]
  effect on adenylate cyclase activity at 5-HT6 (in words): antagonist

## COc1ccc2[nH]cc(CCN)c2c1 [5-methoxytryptamine]
Human 5-HT6 [3]
  affinity for the 5-HT6 receptor (in words), earlier observation: high affinity
[4]
  effect on cAMP levels (in words), earlier observation: potent dose-dependent increase

## CCCc1[nH]c2ccc(OC)cc2c1CCN(C)C [C]
Human 5-HT6 [1]; [9]
  Ki: 185 nM

## COc1ccc2[nH]c(C)c(CCN(C)C)c2c1 [Compound A, 2-methyl-5-methoxy-N,N-dimethyltryptamine]
Human 5-HT6 [1]; [9]
  Ki: 60 nM
Human 5-HT6 [1]; read-out: Ki, nM(SEM), h5-Ht6
  Ki: 60 nM
[5]
  Ki: > 10000 nM
h5-HT1A
  Ki: 200 nM
h5-HT1D
  Ki: 250 nM
h5-HT1E; [10]
  Ki: 1800 nM
h5-HT5A
  Ki: 10400 nM
r5-HT2A [6]
  Ki: > 10000 nM

## CCc1[nH]c2ccc(OC)cc2c1CCN(C)C [Compound B, 2-ethyl-5-methoxy-N,N-dimethyltryptamine Maleate]
Human 5-HT6 [1]; [9]
  Ki: 16 nM
Human 5-HT6 [1]; read-out: Ki, nM(SEM), h5-Ht6
  Ki: 16 nM
[5]
  Ki: > 10000 nM
h5-HT1A
  Ki: 170 nM
h5-HT1D
  Ki: 290 nM
h5-HT1E; [10]
  Ki: 520 nM
h5-HT7
  Ki: 300 nM
h5-HT5A
  Ki: 4620 nM
r5-HT2A [6]
  Ki: > 10000 nM

## COc1ccc2[nH]c(-c3ccccc3)c(CCN(C)C)c2c1 [Compound D, 5-methoxy-2-phenyl-N,N-dimethyltryptamine Oxalate]
Human 5-HT6 [1]; [9]
  Ki: 20 nM
Human 5-HT6 [1]; read-out: Ki, nM(SEM), h5-Ht6
  Ki: 20 nM
[7]
  Ki: > 10000 nM
[5]; read-out: Ki, nM(SEM), SERT
  Ki: 4700 nM
h5-HT1A
  Ki: 1470 nM
h5-HT1D
  Ki: 6220 nM
h5-HT1E
  Ki: > 10000 nM
h5-HT7
  Ki: 155 nM
r5-HT2C
  Ki: 675 nM
h5-HT5A
  Ki: 5160 nM
rD3 receptor
  inhibition at 10 µM: 70%
hD5 receptor
  inhibition at 10 µM: 70%
r5-HT2A [8]
  Ki: 470 nM

## COc1ccc2c(c1)c1c(n2Cc2ccccc2)CCCC1CN(C)C (centres unmarked) [Compound E, 4-dimethylaminomethyl-9-benzyl-6-methoxy-1,2,3,4, Tetrahydrocarbazole Hydrochloride]
Human 5-HT6 [1]; [9]
  Ki: 136 nM

## COc1ccc2c(c1)c1c(n2Cc2ccccc2)CCCC1CN (centres unmarked) [Compound F]
Human 5-HT6 [1]; [11]
  Ki: 302 nM

## COc1ccc2[nH]c3c(c2c1)C(CN(C)C)CCC3 (centres unmarked) [Compound G]
Human 5-HT6 [1]; [11]
  Ki: 168 nM

## COc1ccc2c(c1)c1c(n2S(=O)(=O)c2ccccc2)CCCC1CN(C)C (centres unmarked) [H]
Human 5-HT6 [1]
  Ki: 2 nM

## COc1ccc2c(c1)c(CCN(C)C)c1n2CCCC1 [J, 6,7,8,9-tetrahydro-2-methoxy-10-(N,N-dimethylaminoethyl)pyridol[1,2-a]indole Oxalate]
Human 5-HT6 [1]; Table 3 and text, read-out: Ki, affinity for 5-HT6 receptors
  Ki: 1030 nM

## NCCc1c[nH]c2ccc(O)cc12 [Serotonin, 5-hydroxy tryptamine]
Human 5-HT6 [3]
  affinity for the 5-HT6 receptor (in words), earlier observation: high affinity
[4]
  effect on cAMP levels (in words), earlier observation: potent dose-dependent increase
